Data reported in ChEMBL document CHEMBL1687812, “Interplay between drug efflux and antioxidants in Escherichia coli resistance to antibiotics” (2010).
Values after ≈ are worked out from the molar mass of the structure shown. Active and inactive are the calls of the source. The calls are words filed in the database; no cut-off is given here.

How the values were obtained:
Escherichia coli [1] = assay: Antibacterial activity against ygiBC, yjfMC, gspS deficient Escherichia coli GD108; type: functional
Escherichia coli [2] = assay: Antibacterial activity against speE deficient Escherichia coli JW0117-1; type: functional
Escherichia coli [3] = assay: Antibacterial activity against tolC, speE deficient Escherichia coli GD106; type: functional
Escherichia coli [4] = assay: Antibacterial activity against tolC deficient Escherichia coli GD100; type: functional
Escherichia coli [5] = assay: Antibacterial activity against gshB deficient Escherichia coli JW2914-1; type: functional
Escherichia coli [6] = assay: Antibacterial activity against tolC, gshB deficient Escherichia coli GD107; type: functional
Escherichia coli [7] = assay: Antibacterial activity against wild type Escherichia coli BW25113; type: functional
Escherichia coli [8] = assay: Antibacterial activity against gspS deficient Escherichia coli JW2956-1; type: functional
Escherichia coli [9] = assay: Antibacterial activity against kanamycin-resistant acrAB, acrEF deficient Escherichia coli W4680AE presence of 15 mM of glutathione; type: functional
Escherichia coli [10] = assay: Antibacterial activity against wild type Escherichia coli BW25113 presence of 10 mM of glutathione; type: functional
Escherichia coli [11] = assay: Antibacterial activity against tolC deficient Escherichia coli GD100 presence of 5 mM of glutathione; type: functional
Escherichia coli [12] = assay: Antibacterial activity against kanamycin-resistant acrAB, acrEF deficient Escherichia coli W4680AE absence of glutathione; type: functional
Escherichia coli [13] = assay: Antibacterial activity against tolC deficient Escherichia coli GD100 presence of 15 mM of glutathione; type: functional, organism-based
Escherichia coli [14] = assay: Antibacterial activity against tolC deficient Escherichia coli GD100 presence of 10 mM of glutathione; type: functional
Escherichia coli [15] = assay: Antibacterial activity against kanamycin-resistant acrAB, acrEF deficient Escherichia coli W4680AE presence of 5 mM of glutathione; type: functional
Escherichia coli [16] = assay: Antibacterial activity against wild type Escherichia coli BW25113 absence of glutathione; type: functional
Escherichia coli [17] = assay: Antibacterial activity against kanamycin-resistant acrAB, acrEF deficient Escherichia coli W4680AE presence of 10 mM of glutathione; type: functional
Escherichia coli [18] = assay: Antibacterial activity against tolC deficient Escherichia coli GD100 absence of glutathione; type: functional
Escherichia coli [19] = assay: Antibacterial activity against wild type Escherichia coli BW25113 presence of 5 mM of glutathione; type: functional
Escherichia coli [20] = assay: Antibacterial activity against wild type Escherichia coli BW25113 presence of 15 mM of glutathione; type: functional

SMILES	MIC (Escherichia coli [1])	MIC (Escherichia coli [2])	MIC (Escherichia coli [3])	MIC (Escherichia coli [4])	MIC (Escherichia coli [5])	MIC (Escherichia coli [6])	MIC (Escherichia coli [7])	MIC (Escherichia coli [8])	MIC (Escherichia coli [9])	MIC (Escherichia coli [10])	MIC (Escherichia coli [11])	MIC (Escherichia coli [12])	MIC (Escherichia coli [13])	MIC (Escherichia coli [14])	MIC (Escherichia coli [15])	MIC (Escherichia coli [16])	MIC (Escherichia coli [17])	MIC (Escherichia coli [18])	MIC (Escherichia coli [19])	MIC (Escherichia coli [20])
NCC[C@H](O)C(=O)N[C@@H]1C[C@H](N)[C@@H](O[C@H]2O[C@H](CN)[C@@H](O)[C@H](O)[C@H]2O)[C@H](O)[C@H]1O[C@H]1O[C@H](CO)[C@@H](O)[C@H](N)[C@H]1O [AMIKACIN]	1 µg/mL (≈ 1.71 µM)	16 µg/mL (≈ 27.3 µM)	8 µg/mL (≈ 13.7 µM)	1 µg/mL (≈ 1.71 µM)	4 µg/mL (≈ 6.83 µM)	2 µg/mL (≈ 3.42 µM)	1 µg/mL (≈ 1.71 µM)	2 µg/mL (≈ 3.42 µM)	–	–	–	–	–	–	–	–	–	–	–	–
CC1(C)S[C@@H]2[C@H](NC(=O)[C@H](N)c3ccccc3)C(=O)N2[C@H]1C(=O)O [AMPICILLIN]	5 µg/mL (≈ 14.3 µM)	5 µg/mL (≈ 14.3 µM)	5 µg/mL (≈ 14.3 µM)	5 µg/mL (≈ 14.3 µM)	10 µg/mL (≈ 28.6 µM)	5 µg/mL (≈ 14.3 µM)	5 µg/mL (≈ 14.3 µM)	10 µg/mL (≈ 28.6 µM)	–	–	–	–	–	–	–	–	–	–	–	–
CC[C@H]1OC(=O)[C@H](C)[C@@H](O[C@H]2C[C@@](C)(OC)[C@@H](O)[C@H](C)O2)[C@H](C)[C@@H](O[C@@H]2O[C@H](C)C[C@H](N(C)C)[C@H]2O)[C@](C)(O)C[C@@H](C)C(=O)[C@H](C)[C@@H](O)[C@]1(C)O [ERYTHROMYCIN]	64 µg/mL (≈ 87.2 µM)	32 µg/mL (≈ 43.6 µM)	1 µg/mL (≈ 1.36 µM)	1 µg/mL (≈ 1.36 µM)	64 µg/mL (≈ 87.2 µM)	1 µg/mL (≈ 1.36 µM)	32 µg/mL (≈ 43.6 µM)	64 µg/mL (≈ 87.2 µM)	32 µg/mL	512 µg/mL	4 µg/mL	4 µg/mL (≈ 5.45 µM)	Active	4 µg/mL	4 µg/mL	128 µg/mL (≈ 174 µM)	8 µg/mL	4 µg/mL (≈ 5.45 µM)	512 µg/mL	512 µg/mL
NC[C@H]1O[C@H](O[C@H]2[C@H](O)[C@@H](O[C@H]3O[C@H](CO)[C@@H](O)[C@H](N)[C@H]3O)[C@H](N)C[C@@H]2N)[C@H](O)[C@@H](O)[C@@H]1O [KANAMYCIN]	1.56 µg/mL (≈ 3.22 µM)	12.5 µg/mL (≈ 25.8 µM)	6.25 µg/mL (≈ 12.9 µM)	0.78 µg/mL (≈ 1.61 µM)	6.25 µg/mL (≈ 12.9 µM)	3.12 µg/mL (≈ 6.45 µM)	0.78 µg/mL (≈ 1.61 µM)	1.56 µg/mL (≈ 3.22 µM)	–	50 µg/mL	25 µg/mL	–	Active	50 µg/mL	–	1.56 µg/mL (≈ 3.22 µM)	–	1.56 µg/mL (≈ 3.22 µM)	25 µg/mL	50 µg/mL
CCn1cc(C(=O)O)c(=O)c2cc(F)c(N3CCNCC3)cc21 [NORFLOXACIN]	0.01 µg/mL (≈ 0.0313 µM)	0.02 µg/mL (≈ 0.0626 µM)	0.005 µg/mL (≈ 0.0157 µM)	0.01 µg/mL (≈ 0.0313 µM)	0.04 µg/mL (≈ 0.125 µM)	0.0025 µg/mL (≈ 0.00783 µM)	0.04 µg/mL (≈ 0.125 µM)	0.02 µg/mL (≈ 0.0626 µM)	0.16 µg/mL	0.64 µg/mL	0.02 µg/mL	0.005 µg/mL (≈ 0.0157 µM)	Active	0.08 µg/mL	0.01 µg/mL	0.04 µg/mL (≈ 0.125 µM)	0.02 µg/mL	0.01 µg/mL (≈ 0.0313 µM)	0.16 µg/mL	1.28 µg/mL
CO[C@@H]1[C@@H](OC(N)=O)[C@@H](O)[C@H](Oc2ccc3c(O)c(NC(=O)c4ccc(O)c(CC=C(C)C)c4)c(=O)oc3c2C)OC1(C)C [NOVOBIOCIN]	32 µg/mL (≈ 52.2 µM)	64 µg/mL (≈ 104 µM)	1 µg/mL (≈ 1.63 µM)	1 µg/mL (≈ 1.63 µM)	256 µg/mL (≈ 418 µM)	1 µg/mL (≈ 1.63 µM)	32 µg/mL (≈ 52.2 µM)	64 µg/mL (≈ 104 µM)	–	–	–	–	–	–	–	–	–	–	–	–
CN[C@@H]1[C@H](O)[C@H](NC)[C@H]2O[C@@]3(O)C(=O)C[C@@H](C)O[C@H]3O[C@@H]2[C@H]1O [SPECTINOMYCIN]	25 µg/mL (≈ 75.2 µM)	25 µg/mL (≈ 75.2 µM)	25 µg/mL (≈ 75.2 µM)	12.5 µg/mL (≈ 37.6 µM)	25 µg/mL (≈ 75.2 µM)	12.5 µg/mL (≈ 37.6 µM)	25 µg/mL (≈ 75.2 µM)	25 µg/mL (≈ 75.2 µM)	–	–	–	–	–	–	–	–	–	–	–	–
